Data as given in patent publication US10065926B2, “Use of substituted dihydrooxindolylsulfonamides, or the salts thereof, for increasing the stress tolerance of plants” (BAYER CROPSCIENCE AKTIENGESELLSCHAFT, priority 2013, dated 2018).

Molecular target: T1, phosphatase ABI1 via the co-regulator RCAR11/PYR1 (Arabidopsis thaliana, UniProt O49686+P49597)
T1 sequence (P49597 1-434): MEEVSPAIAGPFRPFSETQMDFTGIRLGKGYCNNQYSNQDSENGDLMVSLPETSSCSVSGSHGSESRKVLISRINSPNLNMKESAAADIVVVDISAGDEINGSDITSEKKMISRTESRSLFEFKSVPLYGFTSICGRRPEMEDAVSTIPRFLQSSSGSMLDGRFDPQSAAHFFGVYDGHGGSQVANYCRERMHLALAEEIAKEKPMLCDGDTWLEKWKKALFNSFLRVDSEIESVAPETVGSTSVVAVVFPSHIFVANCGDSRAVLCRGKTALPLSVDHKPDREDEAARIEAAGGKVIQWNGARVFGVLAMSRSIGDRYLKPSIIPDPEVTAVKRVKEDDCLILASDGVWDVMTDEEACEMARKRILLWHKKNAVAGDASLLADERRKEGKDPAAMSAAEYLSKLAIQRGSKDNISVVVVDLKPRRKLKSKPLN
T1 sequence (O49686 1-191): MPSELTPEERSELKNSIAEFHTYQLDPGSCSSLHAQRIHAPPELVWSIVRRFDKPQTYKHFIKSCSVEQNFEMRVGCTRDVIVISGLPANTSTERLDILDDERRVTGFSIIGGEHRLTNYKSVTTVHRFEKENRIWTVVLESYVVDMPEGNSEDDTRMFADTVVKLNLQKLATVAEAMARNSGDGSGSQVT
Experiment: In vitro inhibition of phosphatase ABI1 via co-regulator RCAR11/PYR1, MUP dephosphorylation, fluorescence
Type: biochemical
Conditions: at a concentration of 5 mM of the substance in a solution of DMSO and water; 35° C., 20 minutes
Text: Effects of the phytohormone abscisic acid (ABA) on the behavior of plants under abiotic stress and the mechanism of action of ABA are described in the literature (cf. Abrams et al., WO97/23441, Cutler, Park et al. Science, 2009, 324, 1068; Grill et al. Science, 2009, 324, 1064; Tanokura et al. Biophysics, 2011, 7, 123; Schroeder et al. Plant J. 2010, 61, 290). Therefore, it is possible with the aid of a suitable in vitro test system to derive a correlation between the action of ABA and the stress response of a plant under abiotic stress. In the event of water deficiency (drought stress), plants form the phytohormone abscisic acid (ABA). This binds, along with a co-regulator (Regulatory Component of ABA-Receptor=RCAR according to Grill et al. Science, 2009, 324, 1064 or PYR/PYL according to Cutler et al. Science, 2009, 324, 1068), to a phosphatase (e.g. ABI1, a type 2C protein phosphatase, also abbreviated to PP2C) and inhibits its activity. […] For the determination of activity, the dephosphorylation of 4-methylumbelliferyl phosphate (MUP) was measured at 460 nm. […]
Enzyme buffer mix and substrate mix were made up 5 minutes prior to the addition and warmed to a temperature of 35° C. […] Finally, a relative fluorescence measurement was made at 35° C. with a BMG Labtech “POLARstar Optima” microplate reader using a 340/10 nm excitation filter and a 460 nm emission filter. […]

For `CC1=CC(=O)CC(C)(C)[C@@]1(O)/C=C/C(C)=C\C(=O)O` [abscisic acid], the ABI1 inhibition was “++++ (≥90% inhibition)”.
